According to patent publication US20220251134A1, “2,4,7-SUBSTITUTED-7-DEAZA-2'-DEOXY-2'-FLUOROARABINOSYL NUCLEOSIDE AND NUCLEOTIDE PRO-DRUGS AND USES THEREOF” (Southern Research Institute, priority 2019, published 2022):
Where two headings read alike, the source gives them in different places.

Legend:
[1] = tested on: HBV in HepG2 2.2.15 cells; experiment: HepG2 2.2.15 cell-based HBV replication assay (HBV virus yield, extracellular HBV DNA by real-time PCR); parameters: species or system HBV wild-type strain ayw1; conditions: for EC50 / EC90: Hepatitis B virus
Method: (§1) The HepG2 2.2.15 cell line is a stable human hepatoblastoma cell line that contains two copies of the HBV wild-type strain ayw1 genome and constitutively produces high levels of HBV. Cells were sub-cultured twice a week in Dulbecco's Modified Eagle's Medium (DMEM) supplemented with 10% FBS, 380 μg/mL G418, 2.0 mM L-Glutamine, 100 units/mL Penicillin, and 100 μg/mL Streptomycin. Total cell number and percent viability determinations were performed using a hemacytometer and trypan blue dye exclusion prior to each experiment set-up.
The primary anti-HBV assay was performed as previously described (Korba and Milman (1991) Antiviral Res. 15: 217-228; Korba and Gerin (1992) Antiviral Res. 19: 55-70) with modifications to use real-time PCR (TaqMan-based) to measure extracellular HBV DNA virion-associated released from HepG2 2.2.15 cells. Antiviral compounds blocking any late step of viral replication such as transcription, translation, pre-genome encapsidation, reverse transcription, particle assembly and release can be identified and characterized using this cell line. Briefly, HepG2 2.2.15 cells were seeded in 96-well microtiter plates at 1.5×10^4 cells/well in Dulbecco's Modified Eagle's Medium supplemented with 2% FBS, 2.0 mM L-Glutamine, 100 units/mL Penicillin, and 100 μg/mL Streptomycin. […] Three days post treatment with test article (DPV), cell culture medium was replaced with fresh medium containing the appropriately diluted test compounds. Six days following the initial administration of the test compounds, the cell culture supernatant was collected, treated with pronase and then used in a real-time TaqMan-based PCR assay. The PCR-amplified HBV DNA was detected by measuring fluorescent signal resulting from the exonucleolytic degradation of a quenched fluorescent probe molecule that hybridizes to the amplified HBV DNA.

[2] = Evaluation of cell viability (MTS) in HepG2 2.2.15 cells; format: cell-based, human; conditions: human
Method: as §1, with “set-up. Cell viability was always greater than 95% for experiment set-ups.” for “set-up.”
(§2) At experiment conclusion, MTS reagent (CellTiter®96 Reagent, Promega) reagent was added to culture wells (96 well microtiter plates) and permitted to incubate with cells for 2-4 hours at 37° C., 5% CO2. Each cell culture well was measured for MTS reagent reduction (color change, 490/650 nm) using a SpectraMax i3 plate reader (Molecular Devices).

HSV-1 Strain HF = experiment: Antiviral activity against HSV-1 Strain HF in Vero cells; format: cell-based
[3] = Cytotoxicity (TC50) in Vero cells; format: cell-based; conditions: African green monkey, Table 2
HepG2 2.2.15 cells = experiment: Evaluation of cell viability (MTS) in HepG2 2.2.15 cells; format: cell-based, human; conditions: Table 3; HBV virus yield assay
Method: as §1, with “set-up. Cell viability was always greater than 95% for experiment set-ups.” for “set-up.”
as §2

[4] = HepG2 2.2.15, Table 3, HBV virus yield assay, read-out: EC50
[5] = HepG2 2.2.15, Table 3, HBV virus yield assay, read-out: EC90
[6] = HepG2 2.2.15 cells, Table 3, HBV virus yield assay
[7] = HepG2 2.2.15, Table 1, HBV in HepG2 2.2.15 cells, read-out: EC50
[8] = Table 1, HBV in HepG2 2.2.15 cells, read-out: EC90
[9] = Table 1, HBV in HepG2 2.2.15 cells

Compound | EC50 ([1]; HepG2 2.2.15) | EC90 ([1]; HepG2 2.2.15) | CC50 ([2]; Table 3, HBV virus yield assay) | EC50 [1, 4] | EC90 [1, 5] | CC50 [2, 6] | also measured
CCOC(=O)[C@H](C)NP(=O)(OC[C@H]1O[C@@H](n2ccc3c(N)nc(Cl)nc32)[C@@H](F)[C@@H]1O)Oc1ccccc1 (mixture of isomers) [Compound 9e, ethyl ((((2R,3R,4S,5R)-5-(4-amino-2-chloro-7H-pyrrolo[2,3-d]pyrimidin-7-yl)-4-fluoro-3-hydroxytetrahydro-furan-2-yl)methoxy)-(phenoxy)phosphoryl)-L-alaninate] | 140 nM | > 10000 nM | > 10000 nM | – | – | – | –
Nc1nc2c(ncn2COCCO)c(=O)[nH]1 [Acyclovir, acyclovir, reference compound] | – | – | – | – | – | – | IC50 (HSV-1 Strain HF; Table 2): 11400 nM; Selectivity Index (SI50) (TC50/IC50) (HSV-1 Strain HF; Table 2): >8.77; CC50 [3]: > 100000 nM
CCCCCCCCCCCC(=O)Nc1nc(Cl)nc2c1ccn2[C@@H]1O[C@H](CO)[C@@H](O)[C@@H]1F [Compound 12a, N-(2-chloro-7-((2R,3S,4R,5R)-3-fluoro-4-hydroxy-5-(hydroxymethyl)tetrahydrofuran-2-yl)-7H-pyrrolo[2,3-d]pyrimidin-4-yl)dodecanamide] | – | – | – | 80 nM | 950 nM | > 10000 nM | –
C[C@H](NP(=O)(OC[C@H]1O[C@@H](n2ccc3c(N)nc(Cl)nc32)C(F)C1O)Oc1ccccc1)C(=O)OCc1ccccc1 (single isomer, unassigned) [Compound 9c] | 240 nM | > 10000 nM | > 10000 nM | – | – | – | –
CCCCCCCC/C=C\CCCCCCCC(=O)Nc1nc(Cl)nc2c1ccn2[C@@H]1O[C@H](CO)[C@@H](O)[C@@H]1F [Compound 12b, N-(2-chloro-7-((2R,3S,4R,5R)-3-fluoro-4-hydroxy-5-(hydroxymethyl)tetrahydrofuran-2-yl)-7H-pyrrolo[2,3-d]-pyrimidin-4-yl)oleamide] | – | – | – | 130 nM | > 10000 nM | > 10000 nM | –
Nc1nc(Cl)nc2c1ccn2[C@@H]1O[C@H](CO)[C@@H](O)[C@@H]1F [Compound 5, (2R,3R,4S,5R)-5-(4-amino-2-chloro-7H-pyrrolo[2,3-d]pyrimidin-7-yl)-4-fluoro-2-(hydroxymethyl)tetrahydrofuran-3-ol] | – | – | – | 60 nM | – | – | EC50 [1, 7]: 70 nM; EC90 [1, 8]: 1280 nM; Activity [1, 9]: Hi; Selectivity Index (SI50) (CC50/EC50) [1, 9]: >167; CC50 ([2]; Table 1, HepG2 2.2.15 cells): > 10000 nM; CC50 (HepG2 2.2.15 cells): > 10000 nM; IC50 (HSV-1 Strain HF; Human alphaherpesvirus 1, Table 2): 650 nM; Selectivity Index (SI50) (TC50/IC50) (HSV-1 Strain HF; Table 2): >15.4; CC50 [3]: > 10000 nM
COC(=O)[C@H](C)NP(=O)(OC[C@H]1O[C@@H](n2ccc3c(N)nc(Cl)nc32)[C@@H](F)[C@@H]1O)Oc1ccccc1 (single isomer, unassigned) [Compound 9f] | 240 nM | > 10000 nM | > 10000 nM | – | – | – | –
CC(C)OC(=O)[C@H](C)NP(=O)(OC[C@H]1O[C@@H](n2ccc3c(N)nc(Cl)nc32)[C@@H](F)[C@@H]1O)Oc1ccccc1 (mixture of isomers) [Compound 9b, isopropyl ((((2R,3R,4S,5R)-5-(4-amino-2-chloro-7H-pyrrolo[2,3-d]pyrimidin-7-yl)-4-fluoro-3-hydroxytetrahydrofuran-2-yl)methoxy)(phenoxy)phosphoryl)-L-alaninate] | 90 nM | 1050 nM | > 10000 nM | – | – | – | –
Nc1ccn([C@@H]2CS[C@H](CO)O2)c(=O)n1 [Compound 3TC, Lamivudine, reference compound] | – | – | – | 29 nM | – | – | EC50 [1, 7]: 29 nM; EC90 [1, 8]: 511 nM; CC50 ([2]; Table 1, HepG2 2.2.15 cells): > 2000 nM; CC50 (HepG2 2.2.15 cells): > 2000 nM
CCCCCCCCCCCCCCCCCC(=O)Nc1nc(Cl)nc2c1ccn2[C@@H]1O[C@H](CO)[C@@H](O)[C@@H]1F [Compound 12c, N-(2-chloro-7-((2R,3S,4R,5R)-3-fluoro-4-hydroxy-5-(hydroxymethyl)tetrahydrofuran-2-yl)-7H-pyrrolo[2,3-d]pyrimidin-4-yl)stearamide] | – | – | – | 530 nM | > 10000 nM | > 10000 nM | –
CCCC(CCC)C(=O)Nc1nc(Cl)nc2c1ccn2[C@@H]1O[C@H](CO)[C@@H](O)[C@@H]1F [Compound 12d, N-(2-chloro-7-((2R,3S,4R,5R)-3-fluoro-4-hydroxy-5-(hydroxymethyl)tetrahydrofuran-2-yl)-7H-pyrrolo[2,3-d]pyrimidin-4-yl)-2-propylpentanamide] | – | – | – | 2120 nM | > 10000 nM | > 10000 nM | –
CC(C)COC(=O)[C@H](C)NP(=O)(OC[C@H]1O[C@@H](n2ccc3c(N)nc(Cl)nc32)[C@@H](F)[C@@H]1O)Oc1ccccc1 (single isomer, unassigned) [Compound 9d] | 300 nM | > 10000 nM | > 10000 nM | – | – | – | –
CCC(CC)COC(=O)[C@H](C)NP(=O)(OC[C@H]1O[C@@H](n2ccc3c(N)nc(Cl)nc32)[C@@H](F)[C@@H]1O)Oc1ccccc1 (stereo partly drawn) [Compound 9a, 2-ethylbutyl ((((2R,3R,4S,5R)-5-(4-amino-2-chloro-7H-pyrrolo[2,3-d]pyrimidin-7-yl)-4-fluoro-3-hydroxytetrahydrofuran-2-yl)methoxy)(phenoxy)phosphoryl)-L-alaninate] | 160 nM | 1580 nM | > 10000 nM | – | – | – | –
